# Measurements taken from ChEMBL document CHEMBL1201862, “PubChem BioAssay data set” (2004).
# Activity calls are given as the source filed them.
# Tests used:
# [1] = Luminescence-based dose response cell-based high throughput screening assay for cytotoxic compounds using the IEC-6 intestinal epithelial cell line. [Related pubchem assays: 1858 (Summary AID.), 1825 (Counterscreen.), 1907 (Confirmation screen.)]; format: functional
# [2] = Luminescence Cell-Based Dose Response to Identify Activators of 5'UTR Stem-Loop Driven Prion Protein mRNA Translation in H4-C Neuroglioblastoma Cells. [Related pubchem assays: 1829 (Project Summary), 1814 (Primary HTS)]; format: functional
# [3] = Luminescence Cell-Based Dose Confirmation HTS to Identify Activators of 5'UTR Stem-Loop Driven Alpha-Synuclein mRNA Translation in H4 Neuroglioblastoma Cells. [Related pubchem assays: 1829 (Project Summary), 1814 (Primary HTS)]; format: functional
# [4] = Luminescence Cell-Based Dose Response HTS to Identify Activators of Luciferase Translation or Activity in H4 […] Cells. [Related pubchem assays: 1829 (Project Summary), 1814 (Primary HTS)]; format: functional
# H4 = experiment: Luminescence Cell-Based Dose Response HTS to Identify Activators of 5'UTR Stem-Loop Driven Prion Protein mRNA Translation in H4 Neuroglioblastoma Cells. [Related pubchem assays: 1829 (Project Summary), 1814 (Primary HTS)]; format: functional; details: Homo sapiens
# [5] = Luminescence Cell-Based Dose Response to Identify Activators of Luciferase Translation or Activity in H4-C Neuroglioblastoma Cells. [Related pubchem assays: 1829 (Project Summary), 1814 (Primary HTS)]; format: functional
# Large T antigen = Large T antigen (Simian virus 40, UniProt P03070); format: functional, Betapolyomavirus macacae;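 also: Confirmatory-stage PubChem screen for compounds that inhibit SV40 T antigen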
# Large T antigen, sequence (P03070 whole entry): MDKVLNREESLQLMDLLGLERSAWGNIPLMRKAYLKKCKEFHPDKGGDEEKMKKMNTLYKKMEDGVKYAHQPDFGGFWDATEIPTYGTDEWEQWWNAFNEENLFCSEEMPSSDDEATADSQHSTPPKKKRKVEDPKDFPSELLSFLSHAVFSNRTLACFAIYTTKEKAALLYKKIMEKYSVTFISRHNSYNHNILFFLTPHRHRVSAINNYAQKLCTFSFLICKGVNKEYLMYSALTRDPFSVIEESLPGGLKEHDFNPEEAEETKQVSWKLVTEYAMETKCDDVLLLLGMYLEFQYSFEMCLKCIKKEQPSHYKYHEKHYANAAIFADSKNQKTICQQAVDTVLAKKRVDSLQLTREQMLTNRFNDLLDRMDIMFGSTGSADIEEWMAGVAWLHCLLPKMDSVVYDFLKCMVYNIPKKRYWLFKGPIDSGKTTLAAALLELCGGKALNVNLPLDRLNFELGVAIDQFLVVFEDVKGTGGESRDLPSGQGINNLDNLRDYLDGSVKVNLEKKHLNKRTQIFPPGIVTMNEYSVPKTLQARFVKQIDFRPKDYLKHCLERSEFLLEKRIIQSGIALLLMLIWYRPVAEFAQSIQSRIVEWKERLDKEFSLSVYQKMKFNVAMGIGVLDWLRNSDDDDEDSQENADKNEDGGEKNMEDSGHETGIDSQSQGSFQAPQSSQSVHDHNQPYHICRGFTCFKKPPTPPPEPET
# [6] = Luminescence Cell-Based Dose Confirmation to Identify Activators of 5'UTR Stem-Loop Driven Alpha-Synuclein mRNA Translation in H4 Neuroglioblastoma Cells. [Related pubchem assays: 1829 (Project Summary), 1814 (Primary HTS)]; format: functional
# [7] = target: Induced myeloid leukemia cell differentiation protein Mcl-1 (Homo sapiens, UniProt Q07820); format: functional
# Induced myeloid leukemia cell differentiation protein Mcl-1, sequence (Q07820 whole entry): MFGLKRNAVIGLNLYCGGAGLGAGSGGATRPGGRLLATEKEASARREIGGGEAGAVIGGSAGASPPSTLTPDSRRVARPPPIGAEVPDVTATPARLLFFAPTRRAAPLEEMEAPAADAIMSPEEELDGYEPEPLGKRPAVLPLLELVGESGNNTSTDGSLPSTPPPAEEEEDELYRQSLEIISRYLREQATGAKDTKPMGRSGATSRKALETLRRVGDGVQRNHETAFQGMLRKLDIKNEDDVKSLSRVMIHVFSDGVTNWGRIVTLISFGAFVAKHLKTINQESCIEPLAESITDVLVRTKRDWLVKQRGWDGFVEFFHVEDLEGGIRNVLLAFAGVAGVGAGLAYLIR
# [8] = target: Neuropeptide Y receptor type 1 (Homo sapiens, UniProt P25929); experiment: NPY-Y1 receptor antagonist potency, dose response, cell-based (AID 1277); format: functional
# Neuropeptide Y receptor type 1, sequence (P25929 whole entry): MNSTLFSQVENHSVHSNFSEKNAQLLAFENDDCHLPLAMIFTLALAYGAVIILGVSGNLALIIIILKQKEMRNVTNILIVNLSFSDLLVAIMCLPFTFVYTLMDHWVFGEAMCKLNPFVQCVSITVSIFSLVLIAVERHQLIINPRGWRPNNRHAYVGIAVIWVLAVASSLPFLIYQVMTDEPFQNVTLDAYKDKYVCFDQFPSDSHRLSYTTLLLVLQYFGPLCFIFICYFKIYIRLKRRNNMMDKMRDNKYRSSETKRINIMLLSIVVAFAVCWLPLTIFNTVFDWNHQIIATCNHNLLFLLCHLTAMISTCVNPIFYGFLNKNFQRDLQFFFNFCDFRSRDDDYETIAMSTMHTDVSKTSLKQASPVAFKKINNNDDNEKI
# [9] = inhibitors of intracellular T. cruzi replication, confirmation, NIH3T3 host cells, beta-gal luminescence (AID 2044); format: functional, cell-based;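 also: intracellular parasites grown in NIH/3T3 mouse fibroblasts as host cells; luminescent beta-galactosidase reporter signal from transgenic T. cruzi replicating inside host cells; inhibitors lower the luminescence signal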
# [10] = cytotoxicity toward NIH3T3 fibroblasts, dose response, counter-screen, cell-based, ATP luminescence, mouse fibroblasts (AID 2010); format: functional;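 also: cells exposed to compound for about 90 hours before reading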
# [11] = target: T1, Sphingosine 1-phosphate receptor 4 (Homo sapiens, UniProt O95977); experiment: Fluorescence dose response cell-based high throughput screening assay for antagonists of the Sphingosine 1-Phosphate Receptor 4 (S1P4). [Related pubchem assays: 1524 (Confirmation in triplicates.), 1510 (Primary screen.)]; format: functional
# T1 sequence (O95977 whole entry): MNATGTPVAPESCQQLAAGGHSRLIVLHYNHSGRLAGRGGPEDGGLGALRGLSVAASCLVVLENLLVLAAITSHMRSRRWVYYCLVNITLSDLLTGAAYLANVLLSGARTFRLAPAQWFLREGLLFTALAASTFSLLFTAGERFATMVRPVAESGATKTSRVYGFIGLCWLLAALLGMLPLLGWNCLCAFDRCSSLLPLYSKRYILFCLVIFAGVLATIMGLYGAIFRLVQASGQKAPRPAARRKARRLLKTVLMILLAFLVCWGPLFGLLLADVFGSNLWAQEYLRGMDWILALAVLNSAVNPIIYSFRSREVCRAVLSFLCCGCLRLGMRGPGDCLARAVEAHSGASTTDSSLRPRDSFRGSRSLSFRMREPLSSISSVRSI
# [12] = target: Sphingosine 1-phosphate receptor 1 (Homo sapiens, UniProt P21453); format: functional;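 also: Tango beta-arrestin reporter U2OS cells stimulated with S1P near its EC80; inhibitor potency meaning antagonism of receptor activation by the natural agonist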
# Sphingosine 1-phosphate receptor 1, sequence (P21453 whole entry): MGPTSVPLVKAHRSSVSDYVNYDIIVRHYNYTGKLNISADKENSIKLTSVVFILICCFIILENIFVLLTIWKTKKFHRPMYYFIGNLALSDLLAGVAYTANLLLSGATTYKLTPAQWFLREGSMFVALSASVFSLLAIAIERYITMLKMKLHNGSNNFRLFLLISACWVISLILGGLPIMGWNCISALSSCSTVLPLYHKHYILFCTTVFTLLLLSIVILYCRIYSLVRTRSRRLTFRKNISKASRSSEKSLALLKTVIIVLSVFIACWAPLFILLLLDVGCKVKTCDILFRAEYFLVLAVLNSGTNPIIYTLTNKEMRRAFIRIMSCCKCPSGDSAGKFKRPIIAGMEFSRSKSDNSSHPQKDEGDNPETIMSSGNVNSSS
# [13] = target: T2, Microphthalmia-associated transcription factor (Homo sapiens, UniProt O75030); experiment: TRPM1 promoter luciferase signal decrease, dose response, MITF inhibitor project, cell-based, SK-MEL-5, cherry-picked, set 3 (AID 493073); format: functional
# T2 sequence (O75030 whole entry): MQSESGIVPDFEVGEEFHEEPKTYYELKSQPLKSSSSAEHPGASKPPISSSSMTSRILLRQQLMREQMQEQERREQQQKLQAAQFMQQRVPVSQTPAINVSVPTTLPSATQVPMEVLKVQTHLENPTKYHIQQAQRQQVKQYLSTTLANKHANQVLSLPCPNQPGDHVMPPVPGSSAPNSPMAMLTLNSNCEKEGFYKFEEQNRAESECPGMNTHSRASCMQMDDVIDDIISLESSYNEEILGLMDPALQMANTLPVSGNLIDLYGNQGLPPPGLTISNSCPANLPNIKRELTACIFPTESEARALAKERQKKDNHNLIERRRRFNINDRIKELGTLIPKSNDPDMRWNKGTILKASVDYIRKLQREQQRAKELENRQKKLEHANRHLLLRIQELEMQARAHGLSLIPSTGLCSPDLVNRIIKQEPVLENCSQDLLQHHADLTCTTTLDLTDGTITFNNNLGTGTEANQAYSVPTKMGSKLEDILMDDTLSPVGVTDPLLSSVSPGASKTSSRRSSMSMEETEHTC
# [14] = Fluorescence-based cell-based high throughput dose response assay for inhibitors of the interaction of nucleotide-binding oligomerization domain containing 2 (NOD2) and the receptor-interacting serine-threonine kinase 2 (RIPK2).; format: functional; details: Homo sapiens
# [15] = inhibitors of PGC1a acetylation in cells, dose response, cell-based, cherry-picked samples (AID 720514); format: functional;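 also: potency may reflect raised or lowered acetylation signal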
compound,measurement,setting,value
N=C(N)Nc1ccc(NC(=N)N)cc1,IC50,[1],1800 nM (active)
Oc1ccc(-c2csc(Nc3ncccn3)n2)cc1O,EC50,[2],815 nM (active)
same,EC50,[3],100 nM (active)
same,EC50,[4],3450 nM (active)
same,EC50,H4,125 nM (active)
same,EC50,[5],> 12000 nM (not active)
same,IC50,Large T antigen,14000 nM (active)
same,EC50,[6],670 nM (active)
same,IC50,[7],3520 nM (active)
CCc1cc(-c2n[nH]cc2-c2ccc3c(c2)OCO3)c(O)cc1O,IC50,[8],13300 nM (not active)
O=C(Cn1ncc(Cl)c(Cl)c1=O)c1ccc(Cl)cc1,EC50,[9],2110 nM (active)
same,EC50,[10],2410 nM (active)
same,IC50,[11],2150 nM (active)
same,IC50,[12],7280 nM (active)
same,AC50,[13],8810 nM (active)
same,IC50,[14],1840 nM (active)
same,AC50,[15],3390 nM (active)
